Assay results taken from patent publication EP0073997A1, “Substituted 2-amino-3,4-dihydro-pyridine derivatives, process for their preparation and their use in medicines” (BAYER AG, priority 1981, dated 1983).

Tested on: Wistar-Ratten
Test: Cholesterol load test: liver cholesterol after oral cholesterol load
Type: in vivo
Conditions: Dosis 10 mg/kg p.o.; given together with cholesterol in 0,75 % tragacanth suspension; liver cholesterol after 24 h
Method: Cholesterol- bzw. Fettbelastungstests wurden an nüchternen männlichen oder weiblichen Wistar-Ratten mit einem Körpergewicht zwischen 130-230 g durchgeführt.
Cholesterol-Belastung: • Cholesterol und die zu prüfende Substanz wurden in 0,75 %iger Traganth-Suspension gleichzeitig oral appliziert. Nach 24 h wurden die Tiere getötet und der Cholesterolgehalt in der Leber bestimmt. Cholesterol wurde nach der Liebermann-Burchard-Methode mit der Testkombination von Boehringer Mannheim bestimmt. Kontrolltiere erhielten ein entsprechendes Volumen Cholesterol-Traganth-Suspension ohne Testsubstanz. Zur Kontrolle des Cholesterol-Anstiegs als Folge der Cholesterol-Belastung wurde einer weiteren Kontrollgruppe Traganth-Suspension ohne Cholesterol oral appliziert.

In the case of `CC(=O)OCc1ccc(C2=C(C)N=C(N3CCN(c4ccccc4)CC3)CC2c2ccc(COC(C)=O)cc2)cc1` (stereo not drawn) [Beispiel 9], the “Verminderung des Lebercholesterinanstiegs im Vergleich zur Kontrolle nach oraler Cholesterinbelastung in Prozent” value is reported as 17,7%.

With `CC1=C(c2ccccc2)C(c2cccc(COC(=O)CCCC(=O)O)c2)CC(N2CCN(c3ccccc3)CC2)=N1` (stereo not drawn) [Beispiel 19, 4-(3-(5-Carboxybutyryloxymethyl)-phenyl)-6-methyl-5-phenyl-2-(4-phenylpiperazino)-3,4-dihydropyridin] the “Verminderung des Lebercholesterinanstiegs im Vergleich zur Kontrolle nach oraler Cholesterinbelastung in Prozent” value was 36,3%.

For “6-Methyl-2-(4-phenylpiperazino)-4,5-bis(2-pyrrolidinomethylphenyl)-3,4-dihydropyridin [Beispiel 18]”, the “Verminderung des Lebercholesterinanstiegs im Vergleich zur Kontrolle nach oraler Cholesterinbelastung in Prozent” value was 34,1%.

For `Clc1ccc(C2=CC(c3ccc(Cl)cc3)CC(N3CCN(c4ccccc4)CC3)=N2)cc1` (stereo not drawn) [Beispiel 8], the “Verminderung des Lebercholesterinanstiegs im Vergleich zur Kontrolle nach oraler Cholesterinbelastung in Prozent” value was 21,3%.

`C=CCC1C(N2CCN(c3ccccc3)CC2)=NC(C)=C(c2ccccc2)C1c1ccccc1` (stereo not drawn) [Beispiel 21] was tested, and the “Verminderung des Lebercholesterinanstiegs im Vergleich zur Kontrolle nach oraler Cholesterinbelastung in Prozent” value was 34,9%.

In the case of `Clc1ccc(C2CC(N3CCN(c4ccccc4)CC3)=NC3=C2c2ccccc2CC3)cc1` (stereo not drawn) [Beispiel 1, 4-(4-Chlorphenyl)-2-(4-phenylpiperazino)-3,4,5,6-tetrahydronaphthalino(a)pyridin], the “Verminderung des Lebercholesterinanstiegs im Vergleich zur Kontrolle nach oraler Cholesterinbelastung in Prozent” value is reported as 51,7%.

With `CC1=C(c2ccc(N(C)C)cc2)C(c2ccc(Cl)cc2)C(CC(=O)OC(C)(C)C)C(N2CCN(c3ccccc3)CC2)=N1` (stereo not drawn) [Beispiel 29] the “Verminderung des Lebercholesterinanstiegs im Vergleich zur Kontrolle nach oraler Cholesterinbelastung in Prozent” value was 12,0%.

`CC1=C(c2ccccc2)C(c2ccccc2)C(CO)C(N2CCN(c3ccccc3)CC2)=N1` (stereo not drawn) [Beispiel 34] was tested, and the “Verminderung des Lebercholesterinanstiegs im Vergleich zur Kontrolle nach oraler Cholesterinbelastung in Prozent” value was 23,9%.

For `COc1ccc(C2=C(C)N=C(N3CCCC3)C(C)C2c2ccc(OC)cc2)cc1` (stereo not drawn) [Beispiel 25], the “Verminderung des Lebercholesterinanstiegs im Vergleich zur Kontrolle nach oraler Cholesterinbelastung in Prozent” value was 22,6%.

In the case of `CC1=C(c2ccccc2)C(c2cccc(CN3CCCC3)c2)CC(N2CCN(c3ccccc3)CC2)=N1` (stereo not drawn) [Beispiel 17, 6-Methyl-5-phenyl-2-(4-phenylpiperazino)-4-(3-pyrro-lidinomethylphenyl)-3,4-dihydropyridin], the “Verminderung des Lebercholesterinanstiegs im Vergleich zur Kontrolle nach oraler Cholesterinbelastung in Prozent” value is reported as 22,9%.

For `CC1=C(c2cccc(CO)c2)C(c2cccc(CO)c2)CC(N2CCN(c3ccccc3)CC2)=N1` (stereo not drawn) [Beispiel 13], the “Verminderung des Lebercholesterinanstiegs im Vergleich zur Kontrolle nach oraler Cholesterinbelastung in Prozent” value was 37,9%.

For `CC1=C(c2ccc(N(C)C)cc2)C(c2ccc(CO)cc2)CC(N2CCN(c3ccccc3)CC2)=N1` (stereo not drawn) [Beispiel 16], the “Verminderung des Lebercholesterinanstiegs im Vergleich zur Kontrolle nach oraler Cholesterinbelastung in Prozent” value was 36,7%.
